target: C-Raf FL (full length CRAF with Y340E and Y341E activating mutations, co-expressed with h14-3-3 zeta) (Homo sapiens (Human), UniProt P04049, Y340E/Y341E); test: In vitro Raf activity determination, AlphaScreen p-MEK readout, c-Raf (C-Raf FL); assay type: biochemical; details: c-Raf approximately 4 nM, ATP 1 μM, pre-incubation 60 minutes, reaction 1 hour
Procedure, shortened: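 Full-length C-Raf (~4 nM) pre-incubated 60 min at room temperature with compound and kinase-dead biotinylated MEK1 (~10 nM) in Tris pH 7.5, 15 mM MgCl2, BSA, DTT. Reaction started with 1 μM ATP and run 1 h at room temperature. Phospho-MEK detected by AlphaScreen with anti-p-MEK antibody.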

Sequence of C-Raf FL (full length CRAF with Y340E and Y341E activating mutations, co-expressed with h14-3-3 zeta) (P04049 whole entry Y340E/Y341E): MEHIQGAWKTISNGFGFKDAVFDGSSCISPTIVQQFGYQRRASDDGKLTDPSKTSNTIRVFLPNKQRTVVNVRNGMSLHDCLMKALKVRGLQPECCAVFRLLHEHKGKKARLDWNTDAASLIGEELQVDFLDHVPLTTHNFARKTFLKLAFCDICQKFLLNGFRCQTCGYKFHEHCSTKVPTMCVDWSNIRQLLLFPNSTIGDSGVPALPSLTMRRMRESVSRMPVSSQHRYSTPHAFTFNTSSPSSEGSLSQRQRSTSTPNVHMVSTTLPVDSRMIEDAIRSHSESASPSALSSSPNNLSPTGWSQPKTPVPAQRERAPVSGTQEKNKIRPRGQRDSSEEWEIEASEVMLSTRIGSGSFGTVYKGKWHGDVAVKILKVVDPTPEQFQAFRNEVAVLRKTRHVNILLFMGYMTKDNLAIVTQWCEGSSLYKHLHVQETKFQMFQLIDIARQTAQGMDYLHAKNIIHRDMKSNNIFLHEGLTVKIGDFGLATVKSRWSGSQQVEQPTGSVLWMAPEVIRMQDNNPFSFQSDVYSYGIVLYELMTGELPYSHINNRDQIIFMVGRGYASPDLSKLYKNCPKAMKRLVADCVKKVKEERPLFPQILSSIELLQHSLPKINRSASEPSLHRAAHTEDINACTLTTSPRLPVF
Sequence of C-Raf FL (full length CRAF with Y340E and Y341E activating mutations, co-expressed with h14-3-3 zeta) (P63104 whole entry partner): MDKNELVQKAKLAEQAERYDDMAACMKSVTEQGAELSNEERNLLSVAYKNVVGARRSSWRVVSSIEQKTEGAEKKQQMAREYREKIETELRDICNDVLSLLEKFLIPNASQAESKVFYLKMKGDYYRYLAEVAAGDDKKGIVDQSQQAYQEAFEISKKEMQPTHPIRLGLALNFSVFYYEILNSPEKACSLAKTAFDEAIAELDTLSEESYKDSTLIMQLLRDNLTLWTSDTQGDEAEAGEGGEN

Compound | IC50 [nM]
Cc1ccc(NC(=O)c2ccnc(C(C)(F)F)c2)cc1-c1ccc2c(c1)N1CCOCC1C(F)(CO)C2 (single isomer, unassigned) [Example 83, 2-(1,1-difluoroethyl)-N-(3-(5-fluoro-5-(hydroxymethyl)-1,2,4,4a,5,6-hexahydro-[1,4]oxazino[4,3-a]quinolin-9-yl)-4-methylphenyl)isonicotinamide] | 0.85
Cc1ccc(NC(=O)c2ccnc(C(F)(F)F)c2)cc1-c1cnc2c(c1)N1CCOCC1C(C)(C)C2O (single isomer, unassigned) [Example 334, N-(3-(6-hydroxy-5,5-dimethyl-1,2,4,4a,5,6-hexahydro-[1,4]oxazino[4,3-a][1,5]naphthyridin-9-yl)-4-methylphenyl)-2-(trifluoromethyl)isonicotinamide] | 0.4
Cc1ccc(NC(=O)c2ccnc(C(F)(F)F)c2F)cc1-c1cnc2c(c1)C1(C)CCOCCC1C(=O)N2CCO (single isomer, unassigned) [Example 354, 3-fluoro-N-(3-((5a,11b-trans)-7-(2-hydroxyethyl)-11b-methyl-6-oxo-1,2,4,5,5a,6,7,11b-octahydrooxepino[4,5-c][1,8]naphthyridin-10-yl)-4-methylphenyl)-2-(trifluoromethyl)isonicotinamide] | 0.3
Cc1ccc(NC(=O)c2ccnc(C(F)(F)F)c2)cc1-c1cnc2c(c1)C1(C)CCOCCC1C(=O)N2CCO (single isomer, unassigned) [Example 355, N-(3-((5a,11b-trans)-7-(2-hydroxyethyl)-11b-methyl-6-oxo-1,2,4,5,5a,6,7,11b-octahydrooxepino[4,5-c][1,8]naphthyridin-10-yl)-4-methylphenyl)-2-(trifluoromethyl)isonicotinamide] | 1.2
Cc1ccc(NC(=O)c2ccnc(C(F)(F)F)c2)cc1-c1cnc2c(c1)C1(C)CCOCCC1C(=O)N2CCO (single isomer, unassigned) [Example 356, N-(3-((5a,11b-trans)-7-(2-hydroxyethyl)-11b-methyl-6-oxo-1,2,4,5,5a,6,7,11b-octahydrooxepino[4,5-c][1,8]naphthyridin-10-yl)-4-methylphenyl)-2-(trifluoromethyl)isonicotinamide] | 0.1
Cc1ccc(NC(=O)c2cncc(C(F)(F)F)c2)cc1-c1cnc2c(c1)C1(C)CCOCCC1C(=O)N2CCO (single isomer, unassigned) [Example 358, N-(3-((5a,11b-trans)-7-(2-hydroxyethyl)-11b-methyl-6-oxo-1,2,4,5,5a,6,7,11b-octahydrooxepino[4,5-c][1,8]naphthyridin-10-yl)-4-methylphenyl)-5-(trifluoromethyl)nicotinamide] | 0.1
Cc1ncc(NC(=O)c2cccc(C(F)(F)F)c2)cc1-c1cnc2c(c1)C1(C)CCOCCC1C(=O)N2CCO (single isomer, unassigned) [Example 359, N-(5-((5a,11b-trans)-7-(2-hydroxyethyl)-11b-methyl-6-oxo-1,2,4,5,5 a,6,7,11b-octahydrooxepino[4,5-c][1,8]naphthyridin-10-yl)-6-methylpyridin-3-yl)-3-(trifluoromethyl)benzamide] | 0.3
CCN1C(=O)C2COCCN2c2cc(-c3cc(NC(=O)c4ccnc(C(F)(F)F)c4)ccc3C)cnc21 (stereo in doubt) [Example 114, (S)-N-(3-(6-Ethyl-5-oxo-1,2,4,4a,5,6-hexahydropyrido[2′,3′:5,6]pyrazino[2,1-c][1,4]oxazin-9-yl)-4-methylphenyl)-2-(trifluoromethyl)isonicotinamide] | 0.07
CCN1C(=O)C2COCCN2c2cc(-c3cc(NC(=O)c4ccnc(C(F)(F)F)c4)ccc3C)cnc21 (stereo in doubt) [Example 115, (R)-N-(3-(6-ethyl-5-oxo-1,2,4,4a,5,6-hexahydropyrido2′,3′:5,6]pyrazino[2,1-c][1,4]oxazin-9-yl)-4-methylphenyl)-2-(trifluoromethyl)isonicotinamide] | 0.011
CCN1C(=O)C2[C@H]3COC[C@H]3[C@@H]2c2cc(-c3cc(NC(=O)c4ccnc(C(F)(F)F)c4)ccc3C)cnc21 (stereo in doubt) [Example 268, N-(3-((6aS, 6bS, 9aS, 9bS)-5-ethyl-6-oxo-5,6,6a,6b,7,9,9a,9b-octahydrofuro[3′,4′: 3,4]cyclobuta[1,2-c][1,8]naphthyridin-2-yl)-4-methylphenyl)-2-(trifluoromethyl) isonicotinamide] | 0.3
CCN1C(=O)[C@@H]2COCC[C@@]2(C)c2cc(-c3cc(NC(=O)c4ccnc(C(C)(F)F)c4)ccc3C)cnc21 (stereo in doubt) [Example 343, 2-(1,1-difluoroethyl)-N-(3-((4a,10b-trans)6-ethyl-10b-methyl-5-oxo-2,4,4a,5,6,10b-hexahydro-1H-pyrano[3,4-c][1,8]naphthyridin-9-yl)-4-methylphenyl)isonicotinamide] | 0.2
CCN1C(=O)[C@H]2COCC[C@]2(C)c2cc(-c3cc(NC(=O)c4ccnc(C(C)(F)F)c4)ccc3C)cnc21 (stereo in doubt) [Example 344, 2-(1,1-difluoroethyl)-N-(3-((4a,10b-trans)6-ethyl-10b-methyl-5-oxo-2,4,4a,5,6,10b-hexahydro-1H-pyrano[3,4-c][1,8]naphthyridin-9-yl)-4-methylphenyl)isonicotinamide] | 0.1
CCN1C(=O)C2COCC[C@]2(C)c2cc(-c3cc(NC(=O)c4cncc(C(F)(F)F)c4)ccc3C)cnc21 (stereo in doubt) [Example 345, N-(3-((4a,10b-trans)-6-ethyl-10b-methyl-5-oxo-1,4,4a,5,6,10b-hexahydro-2H-pyrano[3,4-c][1,8]naphthyridin-9-yl)-4-methylphenyl)-5-(trifluoromethyl)nicotinamide] | 0.8
CCN1C(=O)C2COCC[C@@]2(C)c2cc(-c3cc(NC(=O)c4cncc(C(F)(F)F)c4)ccc3C)cnc21 (stereo in doubt) [Example 346, N-(3-((4a,10b-trans)-6-ethyl-10b-methyl-5-oxo-1,4,4a,5,6,10b-hexahydro-2H-pyrano[3,4-c][1,8]naphthyridin-9-yl)-4-methylphenyl)-5-(trifluoromethyl)nicotinamide] | 0.1
Cc1ccc(NC(=O)c2ccnc(C(C)(C)F)c2)cc1-c1cc2n(c(=O)c1)CCC1CCOCCN21 (stereo in doubt) [Example 418, (S)-2-(2-fluoropropan-2-yl)-N-(4-methyl-3-(9-oxo-1,2,5,5a,6,7-hexahydro-4H,9H-pyrido[2′,1′:2,3]pyrimido[1,6-d][1,4]oxazepin-11-yl)phenyl)isonicotinamide] | 2.1
CCOC(=O)c1c2n(c3cc(-c4cc(NC(=O)c5ccnc(C(F)(F)F)c5)ccc4C)ccc3c1=O)CCOC2 [Example 1, ethyl 9-(2-methyl-5-(2-(trifluoromethyl)isonicotinamido)phenyl)-6-oxo-1,2,4,6-tetrahydro-[1,4]oxazino[4,3-a]quinoline-5-carboxylate] | 0.045
Cc1ccc(NC(=O)c2ccnc(C(F)(F)F)c2)cc1-c1ccc2c(=O)c(C(=O)O)c3n(c2c1)CCOC3 [Example 2, 9-(2-methyl-5-(2-(trifluoromethyl)isonicotinamido)phenyl)-6-oxo-1,2,4,6-tetrahydro-[1,4]oxazino[4,3-a]quinoline-5-carboxylic Acid] | 0.136
Cc1ccc(NC(=O)c2ccnc(C(F)(F)F)c2)cc1-c1ccc2c(c1)N1CCOC[C@H]1C[C@H]2O [Example 4, N-(3-((4aR,6R)-6-hydroxy-1,2,4,4a,5,6-hexahydro-[1,4]oxazino[4,3-a]quinolin-9-yl)-4-methylphenyl)-2-(trifluoromethyl)isonicotinamide] | 0.0062
Cc1ccc(NC(=O)c2ccnc(C(F)(F)F)c2)cc1-c1ccc2c(c1)N1CCOC[C@@H]1C[C@@H]2O [Example 5, N-(3-((4aS,6S)-6-hydroxy-1,2,4,4a,5,6-hexahydro-[1,4]oxazino[4,3-a]quinolin-9-yl)-4-methylphenyl)-2-(trifluoromethyl)isonicotinamide] | 0.036
Cc1ccc(NC(=O)c2ccnc(C(C)(F)F)c2)cc1-c1ccc2c(c1)N1CCOC[C@H]1C[C@H]2O [Example 13, 2-(1,1-difluoroethyl)-N-(3-((4aR,6R)-6-hydroxy-1,2,4,4a,5,6-hexahydro-[1,4]oxazino[4,3-a]quinolin-9-yl)-4-methylphenyl)isonicotinamide] | 0.0055
Cc1ccc(NC(=O)c2ccnc(C(C)(F)F)c2)cc1-c1ccc2c(c1)N1CCOC[C@H]1C[C@@]2(C)O [Example 24, 2-(1,1-difluoroethyl)-N-(3-((4aR,6R)-6-hydroxy-6-methyl-1,2,4,4a,5,6-hexahydro-[1,4]oxazino[4,3-a]quinolin-9-yl)-4-methylphenyl)isonicotinamide] | 0.049
Cc1ccc(NC(=O)c2ccnc(C(C)(F)F)c2)cc1-c1ccc2c(c1)N1CCOC[C@@H]1C[C@]2(C)O [Example 25, 2-(1,1-difluoroethyl)-N-(3-((4aS,6S)-6-hydroxy-6-methyl-1,2,4,4a,5,6-hexahydro-[1,4]oxazino[4,3-a]quinolin-9-yl)-4-methylphenyl)isonicotinamide] | 0.52
COC1CC2COCCN2c2cc(-c3cc(NC(=O)c4ccnc(C(C)(F)F)c4)ccc3C)cnc21 (stereo not drawn) [Example 33, 2-(1,1-difluoroethyl)-N-(3-(6-methoxy-1,2,4,4a,5,6-hexahydro-[1,4]oxazino[4,3-a][1,5]naphthyridin-9-yl)-4-methylphenyl)isonicotinamide] | 0.0082
Cc1ccc(NC(=O)c2ccnc(C(C)(F)F)c2)cc1-c1ccc2c(c1)N1CCOC[C@@H]1C(CO)(CO)C2 [Example 53, (S)—N-(3-(5,5-bis(hydroxymethyl)-1,2,4,4a,5,6-hexahydro-[1,4]oxazino[4,3-a]quinolin-9-yl)-4-methylphenyl)-2-(1,1-difluoroethyl)isonicotinamide] | 0.0062
